From ChEMBL document CHEMBL3885861, “Open TG-GATES”

Species on record: Rattus norvegicus
Test: Open TG-GATES - Regimen: Single
Assay type: toxicity, organism-based, Sprague-Dawley
Set-up: regimen Single, gender Male, age 6 weeks
Conditions: in vivo, po, 200 mg/kg, route gavage, dose level Low; for APTT / Bas / Eos / Fbg / Hb / Ht / Lym / MCH / MCHC / MCV / Mono / Neu / PT / Plat / RBC / Ret / WBC: tissue Blood; for KIDNEY_L / KIDNEY_R / KIDNEY_TOTAL: tissue Kidney; for LIVER: tissue Liver; for A/G / ALP / ALT / AST / BUN / CRE / Ca / Cl / DBIL / GLC / IP / K / LDH / Na / PL / RALB / TBIL / TC / TG / TP / gamma-GTP: tissue Plasma

Q: With `NNC(=O)c1ccncc1` [ISONIAZID] as the molecule, how does the TERMINAL_BW (3 h) read?
A: 222.6 g

Q: What about the APTT (3 h) of the same molecule?
A: 18.4 s

Q: And the Bas (3 h)?
A: 0%

Q: What about the Eos (3 h) of the same molecule?
A: 0.8%

Q: And the Fbg (3 h)?
A: 239.8 mg/dL

Q: And the Hb (3 h)?
A: 13.6 g/dL

Q: What about the Ht (3 h) of the same molecule?
A: 38%

Q: And the Lym (3 h)?
A: 74.4%

Q: And the MCH (3 h)?
A: 22.1 pg

Q: What about the MCHC (3 h) of the same molecule?
A: 35.8%

Q: What about the MCV (3 h) of the same molecule?
A: 61.6 fL

Q: What about the Mono (3 h) of the same molecule?
A: 2%

Q: And the Neu (3 h)?
A: 22.4%

Q: And the PT (3 h)?
A: 12.2 s

Q: And the Plat (3 h)?
A: 126 x10_4/uL

Q: And the RBC (3 h)?
A: 617.4 x10_4/ul

Q: What about the Ret (3 h) of the same molecule?
A: 7.7%

Q: What about the WBC (3 h) of the same molecule?
A: 80.9 x10_2/uL

Q: And the KIDNEY_L (3 h)?
A: 1 g

Q: What about the KIDNEY_R (3 h) of the same molecule?
A: 1 g

Q: And the KIDNEY_TOTAL (3 h)?
A: 2 g

Q: And the LIVER (3 h)?
A: 9.3 g

Q: What about the A/G (3 h) of the same molecule?
A: 1.6

Q: What about the ALP (3 h) of the same molecule?
A: 918.8 IU/L

Q: What about the ALT (3 h) of the same molecule?
A: 35.2 IU/L

Q: And the AST (3 h)?
A: 70 IU/L

Q: What about the BUN (3 h) of the same molecule?
A: 8.8 mg/dL

Q: What about the CRE (3 h) of the same molecule?
A: 0.4 mg/dL

Q: And the Ca (3 h)?
A: 10.3 mg/dL

Q: What about the Cl (3 h) of the same molecule?
A: 105.2 meq/L

Q: What about the DBIL (3 h) of the same molecule?
A: 0.066 mg/dL

Q: And the GLC (3 h)?
A: 211 mg/dL

Q: What about the IP (3 h) of the same molecule?
A: 10.1 mg/dL

Q: And the K (3 h)?
A: 3.6 meq/L

Q: And the LDH (3 h)?
A: 175.2 IU/L

Q: And the Na (3 h)?
A: 142.8 meq/L

Q: And the PL (3 h)?
A: 137 mg/dL

Q: And the RALB (3 h)?
A: 3.5 g/dL

Q: And the TBIL (3 h)?
A: 0.1 mg/dL

Q: What about the TC (3 h) of the same molecule?
A: 76.4 mg/dL

Q: And the TG (3 h)?
A: 57.8 mg/dL

Q: And the TP (3 h)?
A: 5.7 g/dL

Q: And the gamma-GTP (3 h)?
A: 1 IU/L

Q: And the TERMINAL_BW (6 h)?
A: 219 g

Q: And the APTT (6 h)?
A: 18.5 s

Q: And the Bas (6 h)?
A: 0%

Q: And the Eos (6 h)?
A: 1%

Q: And the Fbg (6 h)?
A: 225 mg/dL

Q: What about the Hb (6 h) of the same molecule?
A: 13.7 g/dL

Q: What about the Ht (6 h) of the same molecule?
A: 38.3%

Q: What about the Lym (6 h) of the same molecule?
A: 76.4%

Q: And the MCH (6 h)?
A: 21.7 pg

Q: And the MCHC (6 h)?
A: 35.8%

Q: What about the MCV (6 h) of the same molecule?
A: 60.5 fL

Q: What about the Mono (6 h) of the same molecule?
A: 2.6%

Q: What about the Neu (6 h) of the same molecule?
A: 19%

Q: What about the PT (6 h) of the same molecule?
A: 12 s

Q: What about the Plat (6 h) of the same molecule?
A: 126.8 x10_4/uL

Q: And the RBC (6 h)?
A: 633.8 x10_4/ul

Q: What about the Ret (6 h) of the same molecule?
A: 7.6%

Q: What about the WBC (6 h) of the same molecule?
A: 87.2 x10_2/uL

Q: And the KIDNEY_L (6 h)?
A: 0.9 g

Q: And the KIDNEY_R (6 h)?
A: 0.9 g

Q: What about the KIDNEY_TOTAL (6 h) of the same molecule?
A: 1.9 g

Q: And the LIVER (6 h)?
A: 9.6 g

Q: And the A/G (6 h)?
A: 1.5

Q: And the ALP (6 h)?
A: 735.6 IU/L

Q: And the ALT (6 h)?
A: 28.4 IU/L

Q: What about the AST (6 h) of the same molecule?
A: 58 IU/L

Q: What about the BUN (6 h) of the same molecule?
A: 8.2 mg/dL

Q: What about the CRE (6 h) of the same molecule?
A: 0.4 mg/dL

Q: What about the Ca (6 h) of the same molecule?
A: 10.2 mg/dL

Q: And the Cl (6 h)?
A: 104.8 meq/L

Q: And the DBIL (6 h)?
A: 0.064 mg/dL

Q: And the GLC (6 h)?
A: 211 mg/dL

Q: And the IP (6 h)?
A: 9.5 mg/dL

Q: What about the K (6 h) of the same molecule?
A: 3.9 meq/L

Q: And the LDH (6 h)?
A: 197.4 IU/L

Q: What about the Na (6 h) of the same molecule?
A: 142.4 meq/L

Q: And the PL (6 h)?
A: 140.8 mg/dL

Q: And the RALB (6 h)?
A: 3.3 g/dL

Q: What about the TBIL (6 h) of the same molecule?
A: 0.1 mg/dL

Q: What about the TC (6 h) of the same molecule?
A: 76 mg/dL

Q: And the TG (6 h)?
A: 71.2 mg/dL

Q: And the TP (6 h)?
A: 5.5 g/dL

Q: And the gamma-GTP (6 h)?
A: 1 IU/L

Q: What about the TERMINAL_BW (9 h) of the same molecule?
A: 218.2 g

Q: What about the APTT (9 h) of the same molecule?
A: 18.8 s

Q: What about the Bas (9 h) of the same molecule?
A: 0.2%

Q: What about the Eos (9 h) of the same molecule?
A: 0.6%

Q: And the Fbg (9 h)?
A: 228.2 mg/dL

Q: What about the Hb (9 h) of the same molecule?
A: 13.7 g/dL

Q: And the Ht (9 h)?
A: 37.9%

Q: What about the Lym (9 h) of the same molecule?
A: 75%

Q: And the MCH (9 h)?
A: 21.8 pg

Q: And the MCHC (9 h)?
A: 36%

Q: What about the MCV (9 h) of the same molecule?
A: 60.6 fL

Q: And the Mono (9 h)?
A: 3%

Q: What about the Neu (9 h) of the same molecule?
A: 20.8%

Q: What about the PT (9 h) of the same molecule?
A: 12.3 s

Q: What about the Plat (9 h) of the same molecule?
A: 119 x10_4/uL

Q: What about the RBC (9 h) of the same molecule?
A: 626.2 x10_4/ul

Q: And the Ret (9 h)?
A: 7.8%

Q: And the WBC (9 h)?
A: 82.5 x10_2/uL

Q: And the KIDNEY_L (9 h)?
A: 0.9 g

Q: And the KIDNEY_R (9 h)?
A: 0.9 g

Q: And the KIDNEY_TOTAL (9 h)?
A: 1.8 g

Q: What about the LIVER (9 h) of the same molecule?
A: 8.8 g

Q: What about the A/G (9 h) of the same molecule?
A: 1.7

Q: And the ALP (9 h)?
A: 793.2 IU/L

Q: And the ALT (9 h)?
A: 23.4 IU/L

Q: And the AST (9 h)?
A: 44.6 IU/L

Q: And the BUN (9 h)?
A: 9.4 mg/dL

Q: And the CRE (9 h)?
A: 0.4 mg/dL

Q: What about the Ca (9 h) of the same molecule?
A: 10.5 mg/dL

Q: What about the Cl (9 h) of the same molecule?
A: 105 meq/L

Q: What about the DBIL (9 h) of the same molecule?
A: 0.064 mg/dL

Q: And the GLC (9 h)?
A: 195.2 mg/dL

Q: What about the IP (9 h) of the same molecule?
A: 9.3 mg/dL

Q: What about the K (9 h) of the same molecule?
A: 3.9 meq/L

Q: And the LDH (9 h)?
A: 211.4 IU/L

Q: And the Na (9 h)?
A: 142.8 meq/L

Q: And the PL (9 h)?
A: 150.2 mg/dL

Q: And the RALB (9 h)?
A: 3.5 g/dL

Q: What about the TBIL (9 h) of the same molecule?
A: 0.1 mg/dL

Q: And the TC (9 h)?
A: 80.2 mg/dL

Q: And the TG (9 h)?
A: 77.2 mg/dL

Q: What about the TP (9 h) of the same molecule?
A: 5.5 g/dL

Q: And the gamma-GTP (9 h)?
A: 1 IU/L

Q: What about the TERMINAL_BW (24 h) of the same molecule?
A: 229.4 g

Q: What about the APTT (24 h) of the same molecule?
A: 18.3 s

Q: What about the Bas (24 h) of the same molecule?
A: 0.8%

Q: What about the Eos (24 h) of the same molecule?
A: 1%

Q: And the Fbg (24 h)?
A: 229.2 mg/dL

Q: What about the Hb (24 h) of the same molecule?
A: 13.5 g/dL

Q: And the Ht (24 h)?
A: 37.6%

Q: What about the Lym (24 h) of the same molecule?
A: 78.8%

Q: What about the MCH (24 h) of the same molecule?
A: 21.7 pg

Q: What about the MCHC (24 h) of the same molecule?
A: 36.1%

Q: What about the MCV (24 h) of the same molecule?
A: 60 fL

Q: And the Mono (24 h)?
A: 2.4%

Q: And the Neu (24 h)?
A: 16%

Q: What about the PT (24 h) of the same molecule?
A: 11.7 s

Q: And the Plat (24 h)?
A: 134.2 x10_4/uL

Q: And the RBC (24 h)?
A: 626.6 x10_4/ul

Q: What about the Ret (24 h) of the same molecule?
A: 6.5%

Q: And the WBC (24 h)?
A: 89.2 x10_2/uL

Q: And the KIDNEY_L (24 h)?
A: 1 g

Q: What about the KIDNEY_R (24 h) of the same molecule?
A: 1 g

Q: And the KIDNEY_TOTAL (24 h)?
A: 2 g

Q: And the LIVER (24 h)?
A: 10.3 g

Q: What about the A/G (24 h) of the same molecule?
A: 1.6

Q: And the ALP (24 h)?
A: 1043.4 IU/L

Q: What about the ALT (24 h) of the same molecule?
A: 30 IU/L

Q: What about the AST (24 h) of the same molecule?
A: 58.2 IU/L

Q: What about the BUN (24 h) of the same molecule?
A: 15.6 mg/dL

Q: And the CRE (24 h)?
A: 0.4 mg/dL

Q: What about the Ca (24 h) of the same molecule?
A: 10.8 mg/dL

Q: And the Cl (24 h)?
A: 103 meq/L

Q: And the DBIL (24 h)?
A: 0.06 mg/dL

Q: And the GLC (24 h)?
A: 200.4 mg/dL

Q: And the IP (24 h)?
A: 8.5 mg/dL

Q: What about the K (24 h) of the same molecule?
A: 4.3 meq/L

Q: And the LDH (24 h)?
A: 221.4 IU/L

Q: What about the Na (24 h) of the same molecule?
A: 141.8 meq/L

Q: What about the PL (24 h) of the same molecule?
A: 139 mg/dL

Q: What about the RALB (24 h) of the same molecule?
A: 3.6 g/dL

Q: What about the TBIL (24 h) of the same molecule?
A: 0.1 mg/dL

Q: And the TC (24 h)?
A: 71.4 mg/dL

Q: And the TG (24 h)?
A: 101.6 mg/dL

Q: And the TP (24 h)?
A: 5.7 g/dL

Q: And the gamma-GTP (24 h)?
A: 1.4 IU/L
